From patent US9468687B2, “Immuno gene therapy for treatment of cancer and hyperproliferative diseases” (priority 2004, dated 2016)

Columns and labels:
Renca tumors = conditions: cited from earlier work
CT26 tumors = conditions: cited from earlier work
[1] = test system: ID8 peritoneal disseminated ovarian tumors; experiment: pIL-12/PPC plus paclitaxel in peritoneal disseminated ovarian tumors; type: in vivo, mouse
Method: Intraperitoneal IL-12 gene therapy was combined with paclitaxel chemotherapy to enhance the therapeutic response to disseminated ovarian tumors in mice. The mice were injected intraperitoneally with 5×10^6 ID8 cells in a volume of 500 μl. The treatments were started when tumor burden (mouse weight) reached approximately 20 grams (˜21 days after injection of cells). The mice were injected intraperitoneally with 25 μg of pmIL-12 complexed with PPC at a 11:1 N:P ratio in a volume of 500 μl. The gene treatment was repeated after 7 days constituting a total of two injections (Day 1, 8) per the study. Paclitaxel (Taxol®) was administered only once (Day 0) by intravenous injection at a dose of 8 mg/kg dose in an injection volume of 250 μL. For combination therapy, both gene therapy and chemotherapy treatments were given as described above. Animals were periodically weighed to assess the effect of gene treatment on tumor burden. […] The inhibition of tumor burden by pmIL-12/PPC complexes was slightly higher than that of paclitaxel.

[2] = test system: SCCVII squamous cell carcinoma; experiment: Subcutaneous squamous cell carcinoma (SCCVII) tumor growth; type: in vivo, mouse; conditions: pmIL-12/PPC 25 μg intratumoral weekly x4, two injections
Method: The effect of local administration of pIL-12/PPC complexes on the growth of subcutaneously implanted squamous cell (SCCVII) carcinoma was examined. 4×10^5 squamous carcinoma cells in 100 μl were implanted sc on the right flank of female Female CH3 mice (6-9 weeks, 17-22 grams) The mIL-12 plasmid was complexed with PPC at a 11:1 N:P ratio and administered locally into the tumors at a DNA dose of 25 μg in an injection volume of 50 μl once every week for four weeks starting ˜11 days after tumor implantation. Treatment groups of 12 mice were used and tumor growth was monitored twice per week using caliper measurement.
For combination therapy both gene therapy and chemotherapy treatment were given as described above. Treatment groups of 12 mice were used and tumor growth was monitored twice per week using caliper measurement.

IFN-α
tumor rejection (Renca tumors): 25% | rejection rate (CT26 tumors): 0%

CC(=O)O[C@H]1C(=O)[C@@]2(C)[C@H]([C@H](OC(=O)c3ccccc3)[C@]3(O)C[C@H](OC(=O)[C@H](O)[C@@H](NC(=O)c4ccccc4)c4ccccc4)C(C)=C1C3(C)C)[C@]1(OC(C)=O)CO[C@@H]1C[C@@H]2O [paclitaxel]
peritoneal tumor burden ([1]; pmIL-12 25 μg ip day 1, 8, paclitaxel 8 mg/kg iv day 0): tumor reduction | survival ([1]; pmIL-12/PPC ip, paclitaxel 8 mg/kg iv): improved survival

O=P1(N(CCCl)CCCl)NCCCO1 (stereo not drawn) [cyclophosphamide]
tumor growth in combination study ([2]; cyclophosphamide 200 mg/kg iv): only a partial inhibition of tumor growth | animals that completely rejected the tumor (complete rejection rate) ([2]; cyclophosphamide iv): 10%
